{"source": "patent US20020025918A1", "about": "“Methods of using helical peptides in plants” (priority 1987, published 2002)", "key": {"EL-4 lymphoma cells": {"tested_on": "EL-4 lymphoma cells", "experiment": "EL-4 cell killing, trypan blue exclusion", "conditions": "one hour, 37° C."}, "E. coli [1]": {"tested_on": "E. coli", "experiment": "MBC and MIC susceptibility test", "format": "cell-based", "conditions": "for MBC: Table III"}, "P. aeruginosa": {"tested_on": "P. aeruginosa", "experiment": "MBC and MIC susceptibility test", "format": "cell-based", "conditions": "for MBC: Table III, P. aeuriginosa (−)"}, "S. aureus": {"tested_on": "S. aureus", "experiment": "MBC and MIC susceptibility test", "format": "cell-based"}, "S. auerus": {"tested_on": "S. auerus", "experiment": "Synergy of lytic peptide with antibiotics", "conditions": "Manitou-1 0 μM"}, "E. coli [2]": {"tested_on": "E. coli", "experiment": "Synergy of lytic peptide with antibiotics", "conditions": "Manitou-1 0 μM"}}, "note": "Residues, ends and D or L forms follow the SMILES beside them.", "data": [{"smiles": "CC[C@H](C)[C@H](NC(=O)CNC(=O)[C@H](CCC(N)=O)NC(=O)[C@H](CCCCN)NC(=O)[C@@H](NC(=O)[C@H](CCC(N)=O)NC(=O)[C@H](CCCCN)NC(=O)CNC(=O)[C@@H](NC(=O)[C@H](CCCNC(=N)N)NC(=O)[C@H](CC(=O)O)NC(=O)[C@@H](NC(=O)[C@H](CCCNC(=N)N)NC(=O)[C@H](CCCNC(=N)N)NC(=O)[C@H](Cc1ccccc1)NC(=O)[C@H](CC(C)C)NC(=O)[C@H](CCCNC(=N)N)NC(=O)[C@H](Cc1c[nH]c2ccccc12)NC(=O)[C@H](CCCNC(=N)N)NC(=O)[C@@H]1CCCN1C(=O)[C@@H](N)CCSC)[C@@H](C)CC)C(C)C)[C@@H](C)CC)C(=O)N[C@@H](CC(C)C)C(=O)N[C@@H](CCCNC(=N)N)C(=O)N[C@@H](C)C(=O)NCC(=O)N1CCC[C@H]1C(=O)N[C@@H](C)C(=O)N[C@H](C(=O)N[C@@H](C)C(=O)N[C@@H](CC(C)C)C(=O)N[C@H](C(=O)NCC(=O)N[C@@H](CC(=O)O)C(=O)N[C@@H](C)C(=O)N[C@@H](CCCNC(=N)N)C(=O)N[C@@H](C)C(=O)N[C@H](C(=O)NCC(N)=O)C(C)C)C(C)C)[C@@H](C)CC", "note": "[Shiva-1] (H-MPRWRLFRRIDRVGKQIKQGILRAGPAIALVGDARAVG-NH2; N-terminus and C-terminus assumed)", "values": [{"measurement": "% EL-4 Cells Killed", "setting": "EL-4 lymphoma cells; 10 μM peptide", "result": 2, "unit": "%"}, {"measurement": "% EL-4 Cells Killed", "setting": "EL-4 lymphoma cells; 25 μM peptide", "result": 18, "unit": "%"}, {"measurement": "% EL-4 Cells Killed", "setting": "EL-4 lymphoma cells; 50 μM peptide", "result": 42, "unit": "%"}, {"measurement": "% EL-4 Cells Killed", "setting": "EL-4 lymphoma cells; 100 μM peptide", "result": 87, "unit": "%"}]}, {"smiles": "CC(C)C[C@H](NC(=O)[C@H](C)NC(=O)[C@H](CC(C)C)NC(=O)[C@H](C)NC(=O)[C@H](CC(C)C)NC(=O)[C@H](CCCCN)NC(=O)[C@H](C)NC(=O)[C@H](CC(C)C)NC(=O)[C@H](CCCCN)NC(=O)[C@H](CCCCN)NC(=O)[C@H](C)NC(=O)[C@H](CC(C)C)NC(=O)[C@H](CCCCN)NC(=O)[C@H](CCCCN)NC(=O)[C@H](CC(C)C)NC(=O)[C@H](CCCCN)NC(=O)[C@H](CCCCN)NC(=O)[C@H](C)NC(=O)[C@H](CC(C)C)NC(=O)[C@H](CCCCN)NC(=O)[C@H](CCCCN)NC(=O)[C@H](C)NC(=O)[C@@H](N)Cc1ccccc1)C(N)=O", "note": "[Shiva-10]", "values": [{"measurement": "MBC", "setting": "E. coli [1]", "result": 1.0, "unit": "µM"}, {"measurement": "MBC", "setting": "P. aeruginosa", "result": 2.0, "unit": "µM"}]}, {"smiles": "CC(C)C[C@H](NC(=O)[C@H](CCCCN)NC(=O)[C@H](C)NC(=O)[C@H](CC(C)C)NC(=O)[C@H](CCCCN)NC(=O)[C@H](CCCCN)NC(=O)[C@H](C)NC(=O)[C@H](CC(C)C)NC(=O)[C@H](CCCCN)NC(=O)[C@H](C)NC(=O)[C@H](CC(C)C)NC(=O)[C@H](CCCCN)NC(=O)[C@H](CCCCN)NC(=O)[C@@H](N)CC(C)C)C(=O)N[C@@H](C)C(=O)N[C@@H](CCCCN)C(=O)N[C@@H](CCCCN)C(=O)N[C@@H](CC(C)C)C(=O)N[C@@H](C)C(=O)N[C@@H](CCCCN)C(=O)N[C@@H](CCCCN)C(N)=O", "note": "[Anubis-8]", "values": [{"measurement": "antibacterial result of treatment (Table I; MBC)", "setting": "S. aureus; S. auerus (+)", "result": 8, "unit": "µM"}, {"measurement": "antibacterial result of treatment (Table I; MBC)", "setting": "E. coli [1]", "result": 16, "unit": "µM"}, {"measurement": "antibacterial result of treatment (Table I; MBC)", "setting": "P. aeruginosa; P. aeruginosa (−)", "result": 16, "unit": "µM"}]}, {"smiles": "CN(C)[C@@H]1C(O)=C(C(N)=O)C(=O)[C@@]2(O)C(O)=C3C(=O)c4c(O)cccc4[C@@](C)(O)[C@H]3C[C@@H]12", "note": "[Tetracycline, reference compound]", "values": [{"measurement": "% Cell Death In S. auerus", "setting": "S. auerus; antibiotic 0.5 μM alone", "result": 0, "unit": "%"}, {"measurement": "% Cell Death In S. auerus", "setting": "S. auerus; antibiotic 5.0 μM alone", "result": 35, "unit": "%"}, {"measurement": "% Cell Death In E. coli", "setting": "E. coli [2]; antibiotic 0.5 μM alone", "result": 0, "unit": "%"}, {"measurement": "% Cell Death In E. coli", "setting": "E. coli [2]; antibiotic 5.0 μM alone", "result": 58, "unit": "%"}]}, {"smiles": "[H]/N=C(/N)N[C@H]1[C@H](O)[C@@H](O)[C@H](O[C@@H]2O[C@@H](C)[C@](O)(C=O)[C@H]2O[C@@H]2O[C@@H](CO)[C@H](O)[C@@H](O)[C@@H]2NC)[C@@H](N/C(N)=N\\[H])[C@@H]1O", "note": "[Streptomycin, reference compound]", "values": [{"measurement": "% Cell Death In S. auerus", "setting": "S. auerus; antibiotic 0.5 μM alone", "result": 0, "unit": "%"}, {"measurement": "% Cell Death In S. auerus", "setting": "S. auerus; antibiotic 5.0 μM alone", "result": 87, "unit": "%"}, {"measurement": "% Cell Death In E. coli", "setting": "E. coli [2]; antibiotic 0.5 μM alone", "result": 0, "unit": "%"}, {"measurement": "% Cell Death In E. coli", "setting": "E. coli [2]; antibiotic 5.0 μM alone", "result": 87, "unit": "%"}]}, {"smiles": "CC[C@H](C)[C@H](NC(=O)CNC(=O)[C@H](CC(N)=O)NC(=O)[C@H](CCCNC(=N)N)NC(=O)[C@@H](NC(=O)[C@H](CC(N)=O)NC(=O)[C@H](CCCNC(=N)N)NC(=O)CNC(=O)[C@@H](NC(=O)[C@H](CCCCN)NC(=O)[C@H](CCC(=O)O)NC(=O)[C@@H](NC(=O)[C@H](CCCCN)NC(=O)[C@H](CCCCN)NC(=O)[C@H](Cc1ccccc1)NC(=O)[C@@H](NC(=O)[C@H](CCCCN)NC(=O)[C@H](Cc1c[nH]c2ccccc12)NC(=O)[C@H](CCCCN)NC(=O)[C@@H]1CCCN1C(=O)[C@@H](N)CCSC)C(C)C)[C@@H](C)CC)C(C)C)[C@@H](C)CC)C(=O)N[C@H](C(=O)N[C@@H](CCCCN)C(=O)N[C@@H](C)C(=O)NCC(=O)N1CCC[C@H]1C(=O)N[C@@H](C)C(=O)N[C@H](C(=O)N[C@@H](C)C(=O)N[C@H](C(=O)N[C@@H](CC(C)C)C(=O)NCC(=O)N[C@@H](CCC(=O)O)C(=O)N[C@@H](C)C(=O)N[C@@H](CCCCN)C(=O)N[C@@H](C)C(=O)N[C@@H](CC(C)C)C(=O)NCC(N)=O)C(C)C)[C@@H](C)CC)C(C)C", "note": "[SB-37] (H-MPKWKVFKKIEKVGRNIRNGIVKAGPAIAVLGEAKALG-NH2)", "values": [{"measurement": "MBC", "setting": "S. aureus; Table III, S. aureus (+)", "result": 64, "unit": "µM"}, {"measurement": "MBC", "setting": "E. coli [1]", "result": 2.0, "unit": "µM"}, {"measurement": "MBC", "setting": "P. aeruginosa", "result": 3.5, "unit": "µM"}]}, {"smiles": "CC(C)C[C@H](NC(=O)[C@H](C)NC(=O)[C@H](CCCCN)NC(=O)[C@H](CCCCN)NC(=O)[C@H](CC(C)C)NC(=O)[C@H](C)NC(=O)[C@H](CCCCN)NC(=O)[C@H](CCCCN)NC(=O)[C@H](CC(C)C)NC(=O)[C@H](CCCCN)NC(=O)[C@H](CCCCN)NC(=O)[C@H](CC(C)C)NC(=O)[C@H](C)NC(=O)[C@H](CCCCN)NC(=O)[C@H](CCCCN)NC(=O)[C@H](CC(C)C)NC(=O)[C@H](C)NC(=O)[C@H](CCCCN)NC(=O)[C@H](CC(C)C)NC(=O)[C@H](C)NC(=O)[C@H](CC(C)C)NC(=O)[C@H](C)NC(=O)[C@@H](N)Cc1ccccc1)C(N)=O", "note": "[Hecate-1] (H-FALALKALKKALKKLKKALKKAL-NH2)", "values": [{"measurement": "MBC", "setting": "E. coli [1]", "result": 4.0, "unit": "µM"}, {"measurement": "MBC", "setting": "P. aeruginosa", "result": 10.0, "unit": "µM"}]}]}
